Experimental data published in PubChem BioAssay (NCI).
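These data come from cells grown in 96-well plates and exposed to compound for 48 hours at five concentrations. GI50 marks 50% less growth. TGI: concentration producing complete growth inhibition.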

What was measured:
Test in all cases: growth of human tumour cells (NCI), 48 h
CCRF-CEM leukemia = tested on: CCRF-CEM leukemia
SF-295 CNS = tested on: SF-295 CNS
K-562 leukemia = tested on: K-562 leukemia
SNB-75 CNS = tested on: SNB-75 CNS
MOLT-4 leukemia = tested on: MOLT-4 leukemia
786-0 renal = tested on: 786-0 renal
LOX IMVI melanoma = tested on: LOX IMVI melanoma
UO-31 renal = tested on: UO-31 renal
OVCAR-8 ovarian = tested on: OVCAR-8 ovarian
OVCAR-5 ovarian = tested on: OVCAR-5 ovarian
SR leukemia = tested on: SR leukemia
OVCAR-4 ovarian = tested on: OVCAR-4 ovarian
SK-MEL-28 melanoma = tested on: SK-MEL-28 melanoma
SK-OV-3 ovarian = tested on: SK-OV-3 ovarian
MDA-MB-231 breast = tested on: MDA-MB-231 breast
UACC-62 melanoma = tested on: UACC-62 melanoma
COLO 205 colon = tested on: COLO 205 colon
SNB-19 CNS = tested on: SNB-19 CNS
NCI-H522 lung = tested on: NCI-H522 lung
U251 CNS = tested on: U251 CNS
SK-MEL-2 melanoma = tested on: SK-MEL-2 melanoma
HCC-2998 colon = tested on: HCC-2998 colon
SF-539 CNS = tested on: SF-539 CNS
MCF7 breast = tested on: MCF7 breast
BT-549 breast = tested on: BT-549 breast
DU-145 prostate = tested on: DU-145 prostate
TK-10 renal = tested on: TK-10 renal
RPMI-8226 leukemia = tested on: RPMI-8226 leukemia
RXF 393 renal = tested on: RXF 393 renal
T-47D breast = tested on: T-47D breast
HT29 colon = tested on: HT29 colon
CAKI-1 renal = tested on: CAKI-1 renal
ACHN renal = tested on: ACHN renal
SW-620 colon = tested on: SW-620 colon
A549 NSCLC = tested on: A549 NSCLC
A498 renal = tested on: A498 renal
M14 melanoma = tested on: M14 melanoma
EKVX NSCLC = tested on: EKVX NSCLC
NCI/ADR-RES ovarian = tested on: NCI/ADR-RES ovarian
OVCAR-3 ovarian = tested on: OVCAR-3 ovarian
NCI-H460 lung = tested on: NCI-H460 lung
NCI-H23 lung = tested on: NCI-H23 lung
HL-60(TB) leukemia = tested on: HL-60(TB) leukemia
SK-MEL-5 melanoma = tested on: SK-MEL-5 melanoma
HOP-92 NSCLC = tested on: HOP-92 NSCLC
NCI-H226 lung = tested on: NCI-H226 lung
MALME-3M melanoma = tested on: MALME-3M melanoma
UACC-257 melanoma = tested on: UACC-257 melanoma
HOP-62 NSCLC = tested on: HOP-62 NSCLC
HCT-116 colon = tested on: HCT-116 colon
PC-3 prostate = tested on: PC-3 prostate
SF-268 CNS = tested on: SF-268 CNS
KM12 colon = tested on: KM12 colon
SN12C renal = tested on: SN12C renal
MDA-MB-435 = tested on: MDA-MB-435
HCT-15 colon = tested on: HCT-15 colon
HS 578T breast = tested on: HS 578T breast
IGROV1 ovarian = tested on: IGROV1 ovarian

## Cc1ccc(CN(C)c2ccc(CO)c(Cl)c2)cc1
CCRF-CEM leukemia
  GI50: 33.7 µM
  TGI: > 100 µM
SF-295 CNS
  GI50: 3.37 µM
  TGI: > 76 µM
K-562 leukemia
  GI50: 6.05 µM
  TGI: > 100 µM
SNB-75 CNS
  GI50: 17.2 µM
  TGI: 78.2 µM
MOLT-4 leukemia
  GI50: 25.4 µM
  TGI: > 79.7 µM
786-0 renal
  GI50: 11.8 µM
  TGI: 31.9 µM
LOX IMVI melanoma
  GI50: 17.9 µM
  TGI: > 52.7 µM
UO-31 renal
  GI50: 6.54 µM
  TGI: 75.9 µM
OVCAR-8 ovarian
  GI50: 14.3 µM
  TGI: > 80.1 µM
OVCAR-5 ovarian
  GI50: 0.446 µM
  TGI: 2.48 µM
SR leukemia
  GI50: 23.7 µM
  TGI: > 86.8 µM
OVCAR-4 ovarian
  GI50: 1.52 µM
  TGI: 13.7 µM
SK-MEL-28 melanoma
  GI50: 15.6 µM
  TGI: 53.6 µM
SK-OV-3 ovarian
  GI50: 5.8 µM
  TGI: 30.3 µM
MDA-MB-231 breast
  GI50: 21.9 µM
  TGI: > 100 µM
UACC-62 melanoma
  GI50: 0.282 µM
  TGI: 2.71 µM
COLO 205 colon
  GI50: 3.24 µM
  TGI: 10.5 µM
SNB-19 CNS
  GI50: 34.8 µM
  TGI: > 100 µM
NCI-H522 lung
  GI50: 17.2 µM
  TGI: 65.6 µM
U251 CNS
  GI50: 3.92 µM
  TGI: 39.9 µM
SK-MEL-2 melanoma
  GI50: 8.26 µM
  TGI: 31 µM
HCC-2998 colon
  GI50: 13.9 µM
  TGI: > 60.6 µM
SF-539 CNS
  GI50: 30 µM
  TGI: > 94.1 µM
MCF7 breast
  GI50: 0.676 µM
  TGI: 12 µM
BT-549 breast
  GI50: 13.2 µM
  TGI: 37 µM
DU-145 prostate
  GI50: 22.6 µM
  TGI: > 100 µM
TK-10 renal
  GI50: 0.194 µM
  TGI: 0.938 µM
RPMI-8226 leukemia
  GI50: 10.2 µM
  TGI: > 65.2 µM
RXF 393 renal
  GI50: 6.9 µM
  TGI: 26.5 µM
T-47D breast
  GI50: 0.367 µM
  TGI: 2.4 µM
HT29 colon
  GI50: 6.07 µM
  TGI: 30 µM
CAKI-1 renal
  GI50: 2.4 µM
  TGI: 45.8 µM
ACHN renal
  GI50: 23.6 µM
  TGI: > 100 µM
SW-620 colon
  GI50: 5.23 µM
  TGI: > 100 µM
A549 NSCLC
  GI50: 3.69 µM
  TGI: 27.7 µM
A498 renal
  GI50: 0.056 µM
  TGI: 0.196 µM
M14 melanoma
  GI50: 20.9 µM
  TGI: > 65.1 µM
EKVX NSCLC
  GI50: 18.6 µM
  TGI: 79.7 µM
NCI/ADR-RES ovarian
  GI50: 16.1 µM
  TGI: 63.2 µM
OVCAR-3 ovarian
  GI50: 3.06 µM
  TGI: 12.5 µM
NCI-H460 lung
  GI50: 1.17 µM
  TGI: 11.5 µM
NCI-H23 lung
  GI50: 12.6 µM
  TGI: > 80 µM
HL-60(TB) leukemia
  GI50: 15.1 µM
  TGI: 56 µM
SK-MEL-5 melanoma
  GI50: 5.44 µM
  TGI: 18 µM
HOP-92 NSCLC
  GI50: 1.98 µM
  TGI: 36.7 µM
NCI-H226 lung
  GI50: 0.119 µM
  TGI: 0.257 µM
MALME-3M melanoma
  GI50: 19.7 µM
  TGI: 59 µM
UACC-257 melanoma
  GI50: 0.344 µM
  TGI: 1.31 µM
HOP-62 NSCLC
  GI50: 3.44 µM
  TGI: 29.9 µM
HCT-116 colon
  GI50: 0.395 µM
  TGI: 11.6 µM
PC-3 prostate
  GI50: 24.2 µM
  TGI: 97.5 µM
SF-268 CNS
  GI50: 30.8 µM
  TGI: > 100 µM
KM12 colon
  GI50: 21.3 µM
  TGI: 72 µM
SN12C renal
  GI50: 14 µM
  TGI: 49.5 µM
MDA-MB-435
  GI50: 29.8 µM
  TGI: > 100 µM
HCT-15 colon
  GI50: 13.4 µM
  TGI: > 100 µM
HS 578T breast
  GI50: 26.2 µM
  TGI: > 100 µM
IGROV1 ovarian
  GI50: 0.363 µM
  TGI: 2.52 µM
